Target: T1, human serum albumin (HSA) (Homo sapiens, UniProt P02768)
T1 construct: gene ALB
Assay: intrinsic tryptophan fluorescence quenching titration (water, […] °C; also pH […] phosphate buffer), supported by delayed TMZ hydrolysis
Format: binding

T1 sequence (P02768 25-609): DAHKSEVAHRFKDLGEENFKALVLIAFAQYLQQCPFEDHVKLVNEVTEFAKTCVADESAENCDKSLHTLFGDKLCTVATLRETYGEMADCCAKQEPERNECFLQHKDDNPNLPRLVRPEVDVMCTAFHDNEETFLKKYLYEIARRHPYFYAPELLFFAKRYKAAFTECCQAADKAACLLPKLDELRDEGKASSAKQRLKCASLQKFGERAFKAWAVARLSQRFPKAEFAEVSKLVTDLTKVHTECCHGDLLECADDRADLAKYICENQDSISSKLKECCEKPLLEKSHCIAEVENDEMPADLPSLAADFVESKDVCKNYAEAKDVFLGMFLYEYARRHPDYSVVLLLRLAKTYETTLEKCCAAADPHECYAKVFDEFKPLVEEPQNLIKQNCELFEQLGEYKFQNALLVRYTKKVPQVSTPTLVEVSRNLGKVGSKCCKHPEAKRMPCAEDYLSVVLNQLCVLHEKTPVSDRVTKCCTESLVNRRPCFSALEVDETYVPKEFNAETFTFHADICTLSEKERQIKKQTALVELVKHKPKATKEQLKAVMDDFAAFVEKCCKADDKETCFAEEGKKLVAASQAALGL

## Cn1nnc2c(C(N)=O)ncn2c1=O [TMZ, Temozolomide]
  Kd: ~200 µM

From PMC7408562, “The Interaction of Temozolomide with Blood Components Suggests the Potential Use of Human Serum Albumin as a Biomimetic Carrier for the Drug” (Biomolecules, 2020)
